Patent US20240300927A1, “AMIDES AS CBL-B INHIBITORS” (Genentech, Inc., priority 2021, published 2024)
pEC50, pIC50, pKd: −log10 of the molar value. Like-named read-outs stand apart in the source and are kept apart here.

Columns and labels:
hWB = test: IL-2 hWB assay; assay type: cell-based; conditions: Homo sapiens
[1] = Liver microsomes metabolic stability, dog; assay type: in vitro ADME
Description: (§1) Metabolic stability of test compounds was evaluated in pooled rat, mouse, dog, and cynomolgus monkey liver microsomes (BD Biosciences, San Jose, CA). The incubation conditions were as follows: 1 μM of the tested compound, 1 mM NADPH, 0.5 mg/mL microsomal protein in 0.1 M potassium phosphate buffer (pH 7.4). Following a 5-minute pre-incubation period, the enzymatic reactions were initiated by the addition of NADPH and test compound to the microsomes diluted in phosphate buffered saline. The mixtures were incubated at 37° C. for 0, 20, 40, and 60 min.
(§2) Compound concentrations were assessed by LC-MS/MS. Intrinsic clearance based upon microsomal stability data was determined using a substrate depletion method and scaled to hepatic clearance using the well-stirred model (Obach, R. S.; Baxter, J. G.; Liston, T. E.; Silber, B. M.; Jones, B. C.; MacIntyre, F.; Rance, D. J.; Wastall, P., “The Prediction of Human Pharmacokinetic Parameters from Preclinical and in vitro Metabolism Data”, J. Pharmacol. Exp. Ther., (1997), 283 (1), 46-58).

Mouse PK = assay type: in vivo
[2] = In vitro plasma protein binding, mouse; assay type: in vitro ADME; conditions: pooled mouse plasma, read-out: PPB % (H/R/M) (converted)
Description: In vitro plasma protein binding (n=2) was determined in pooled mouse, rat, and human plasma (Bioreclamation, Inc., Hicksville, NY) by equilibrium dialysis using a Rapid Equilibrium Dialysis (RED) device (Pierce Biotechnology/Thermo Fisher Scientific; Rockford, IL) with a molecular weight cut-off of 8000 Daltons. Test compounds were added to plasma. Plasma samples were equilibriated with phosphate-buffered saline at 37° C. for 4 hours. Compound concentrations in post-dialysis plasma and buffer samples were measured by LC-MS/MS. The percent unbound fraction in plasma for each compound was calculated by dividing the compound concentration in the post-dialysis buffer by that measured in the post-dialysis plasma and multiplying by 100%.

[3] = biological target: Human Cbl-b (residues 40-426) (Homo sapiens (Human), UniProt Q13191); test: Cbl-b SPR assay (incl. multi-point chaser variation); assay type: binding
Description: Affinity of binding to Cbl-b and c-Cbl for compounds described herein can be assessed by surface plasmon resonance (SPR) according to the following protocol. All experiments were recorded on a Biacore™ 8K or Biacore™ 8K+ (Cytiva) with both surface preparation and experimental measurements performed at 20° C. in an assay buffer consisting of 50 mM HEPES, pH 7.5, 0.15 M NaCl, 0.001% (v/v) Tween® 20, 0.2 mM tris(2-carboxyethyl)phosphine, 0.025% (w/v) carboxymethylated dextran (average MW 10 kDa), 0.2% (w/v) PEG 3350, and 2% DMSO. […]
For SPR measurements, 6 concentrations with 2 fold serial dilution were measured with blanks flanking each series for double referencing. […] SPR sensorgrams were recorded in multi-cycle kinetics format, with a contact time of 60 seconds and a flow rate of 40 μl/min, the dissociation time was varied between 120-1200 seconds aiming for 4-5 half-lives of the measured interaction. […]
In the case of potent compounds, the protein-compound half-life cannot be accurately measured using routine fitting of the single cycle titration data. The kd is measured independently by determining the percentage unoccupied compound binding site over time by measuring the binding of a chaser compound measured by SPR.
Chaser binding was measured by a multicycle kinetics SPR experiment using a contact time of 20 seconds, a flow rate of […], and a dissociation time of 120 seconds. […]

CYP3A4 = CYP3A4 (Homo sapiens (Human), UniProt P08684); test: Reversible CYP inhibition, CYP3A4; assay type: in vitro ADME
Description: Reversible CYP inhibition by compounds described herein can be measured by protocols described by Halladay, J. S.; Delarosa, E. M.; Tran, D.; Wang, L.; Wong, S.; Khojasteh, S. C., “High-Throughput, 384-Well, LC-MS/MS CYP Inhibition Assay Using Automation, Cassette-Analysis Technique, and Streamlined Data Analysis”, Drug. Metab. Lett. 2011, 5 (3), 220-230, incorporated herein by reference.
In the CYP3A4 measurements, potency is less desirable.

[4] = Liver microsomes metabolic stability, rat; assay type: in vitro ADME
Description: as §1, §2

CYP3A4, sequence (P08684 whole entry): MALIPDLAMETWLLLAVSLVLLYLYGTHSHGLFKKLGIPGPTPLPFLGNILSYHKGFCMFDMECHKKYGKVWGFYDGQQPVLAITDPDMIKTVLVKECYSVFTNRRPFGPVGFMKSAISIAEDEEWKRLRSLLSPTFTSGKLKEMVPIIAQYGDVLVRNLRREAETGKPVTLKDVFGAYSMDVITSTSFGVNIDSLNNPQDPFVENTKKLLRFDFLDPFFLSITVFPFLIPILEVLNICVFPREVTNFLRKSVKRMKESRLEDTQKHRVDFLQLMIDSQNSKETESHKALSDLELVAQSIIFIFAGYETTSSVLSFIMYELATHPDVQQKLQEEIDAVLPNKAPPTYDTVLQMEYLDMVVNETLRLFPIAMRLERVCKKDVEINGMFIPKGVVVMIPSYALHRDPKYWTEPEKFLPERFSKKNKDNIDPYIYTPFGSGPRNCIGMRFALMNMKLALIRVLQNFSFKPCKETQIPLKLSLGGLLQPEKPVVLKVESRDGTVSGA
Human Cbl-b (residues 40-426), sequence (Q13191 40-426): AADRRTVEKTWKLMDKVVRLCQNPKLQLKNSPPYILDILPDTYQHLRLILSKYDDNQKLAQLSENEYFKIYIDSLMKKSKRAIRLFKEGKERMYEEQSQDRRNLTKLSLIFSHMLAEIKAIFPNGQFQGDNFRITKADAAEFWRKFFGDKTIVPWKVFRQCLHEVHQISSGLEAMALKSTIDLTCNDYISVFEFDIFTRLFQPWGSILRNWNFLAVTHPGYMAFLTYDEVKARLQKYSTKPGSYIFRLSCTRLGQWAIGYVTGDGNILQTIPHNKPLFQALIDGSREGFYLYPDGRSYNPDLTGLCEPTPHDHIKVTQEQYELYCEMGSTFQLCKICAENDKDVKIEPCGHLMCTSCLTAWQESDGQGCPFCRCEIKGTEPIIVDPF

SMILES: CC(C)[C@H]1CN(C)CCN1Cc1cc(C(=O)Nc2cccc(C3(Cc4nncn4C)CC(F)(F)C3)c2)nc(C2CC2)c1 [Compound 224, (S)-6-cyclopropyl-N-(3-(3,3-difluoro-1-((4-methyl-4H-1,2,4-triazol-3-yl)methyl)cyclobutyl)phenyl)-4-((2-isopropyl-4-methylpiperazin-1-yl)methyl)picolinamide]
- pEC50 (hWB): 6.60
- LM (H/R/M/D/C) [1]: 29
- Mouse PK unbound CLp (Mouse PK): (unbound CLp 683)
- clearance (Mouse PK; plasma, intravenous, read-out: Mouse PK CLp): 41 mL/min/kg
- bioavailability (Mouse PK; plasma, oral, read-out: Mouse PK F %): 3.4%
- fraction unbound at 4 h [2]: 0.06
- pKd ([3]; read-out: SPR Kd kin): 8.25
- SPR Kd kin (select.) ([3]; selectivity): 1.3 x
- pIC50 (CYP3A4; M, read-out: CYP3A4 IC50 (M/T)): 6.19
- pIC50 (CYP3A4; T): 5.17
- LM (H/R/M/D/C) [4]: 38
